{"source": "patent US8470845B2", "about": "“Analgesic and methods of treating pain” (Toray Industries, Inc., priority 2004, dated 2013)", "note": "Structures can show the parent of a compound that is named as a salt."}
{"tested_on": "male ddY mouse", "assay": "Analgesic activity test by mouse acetic acid writhing method", "format": "in vivo", "details": "Mus musculus, subcutaneous, 15 minutes before i.p. 0.6% acetic acid; dosage to halve the number of writhing response; read-out: ED50", "procedure": "(§1) To each male ddY mouse, each test compound or the vehicle was subcutaneously administered in an administration volume of 0.1 mL/10 g body weight. Fifteen minutes later, 0.1 mL/10 g body weight of aqueous 0.6% (v/v) acetic acid solution was intraperitoneally administered. From 10 minutes after the administration of the acetic acid solution, the number of writhing response (i.e., the behavior to bend the body backward and/or twist the body) during 10 minutes was counted, and the analgesic activity was evaluated based on the number of writhing response. […] 10% Aqueous dimethylsulfoxide (DMSO) was used as a vehicle for test compounds 1, 2, 3, 4, 5, 6, 7, 8, 9, 10, 11, 12, 13, 14, 15, 16, 17, 18, 19, 20, 21 and 22. 0.1% Citric acid/aqueous 5% xylitol was used as a vehicle for test compounds 10f.", "units": {"ED50": "mg/kg"}}
{"smiles": "O=C1C(Cc2ccccc2)CCN1[C@H]1CC[C@@]2(O)[C@H]3Cc4ccc(O)c5c4[C@@]2(CCN3CC2CC2)[C@H]1O5", "note": "(mixture of isomers) [Compound 4, 1-(17-cyclopropylmethyl-4,5α-epoxy-3,14-dihydroxymorphinan-6α-yl)-3-benzyl-pyrrolidine-2-one (diastereomer mixture).tartaric acid salt]", "ED50": 0.26}
{"smiles": "Cl.O=C1CCCN1[C@@H]1CC[C@@]2(O)[C@H]3Cc4ccc(O)c5c4[C@@]2(CCN3CC2CC2)[C@H]1O5", "note": "[Compound 1, 1-(17-cyclopropylmethyl-4,5α-epoxy-3,14-dihydroxy-morphinan-6β-yl)pyrrolidine-2-one-hydrochloric acid salt]", "ED50": 2.62}
{"smiles": "Cl.O=C1CCCN1[C@H]1CC[C@@]2(O)[C@H]3Cc4ccc(O)c5c4[C@@]2(CCN3CC2CC2)[C@H]1O5", "note": "[Compound 2, 1-(17-cyclopropylmethyl-4,5α-epoxy-3,14-dihydroxy-morphinan-6α-yl)pyrrolidine-2-one-hydrochloric acid salt]", "ED50": 0.95}
{"smiles": "O=C1C(Cc2ccccc2)CCN1[C@@H]1CC[C@@]2(O)[C@H]3Cc4ccc(O)c5c4[C@@]2(CCN3CC2CC2)[C@H]1O5", "note": "(stereo partly drawn) [Compound 3, 1-(17-cyclopropylmethyl-4,5α-epoxy-3,14-dihydroxy-morphinan-6β-yl)-3-benzyl-pyrrolidine-2-one.tartaric acid salt]", "ED50": 0.28}
{"smiles": "O=C1c2ccccc2CN1[C@@H]1CC[C@@]2(O)[C@H]3Cc4ccc(O)c5c4[C@@]2(CCN3CC2CC2)[C@H]1O5", "note": "[Compound 5, 2-(17-cyclopropylmethyl-4,5α-epoxy-3,14-dihydroxy-morphinan-6β-yl)-2,3-dihydroisoindol-1-one.tartaric acid salt]", "ED50": 0.071}
{"smiles": "CCC/C=C1\\CC(=O)N([C@@H]2CC[C@@]3(O)[C@H]4Cc5ccc(O)c6c5[C@@]3(CCN4CC3CC3)[C@H]2O6)C1=O", "note": "[Compound 6, N-(17-cyclopropylmethyl-4,5α-epoxy-3,14-dihydroxy-morphinan-6β-yl)-2-butylidene succinic imide.tartaric acid salt]", "ED50": 0.48}
{"smiles": "C=CCN1CC[C@]23c4c5ccc(O)c4O[C@H]2[C@H](N2C(=O)c4ccc(F)cc4C2=O)CC[C@@]3(O)[C@H]1C5", "note": "[Compound 7, N-(17-allyl-4,5α-epoxy-3,14-dihydroxymorphinan-6β-yl)-4-fluorophthalimide.tartaric acid salt]", "ED50": 0.033}
{"smiles": "C=CCN1CC[C@]23c4c5ccc(O)c4O[C@H]2[C@@H](N2C(=O)c4cccc(F)c4C2=O)CC[C@@]3(O)[C@H]1C5", "note": "[Compound 8, N-(17-allyl-4,5α-epoxy-3,14-dihydroxy-morphinan-6α-yl)-3-fluorophthal-imide.tartaric acid salt]", "ED50": 0.03}
{"smiles": "C=CCN1CC[C@]23c4c5ccc(O)c4O[C@H]2[C@@H](N2C(=O)c4ccccc4C2=O)CC[C@@]3(O)[C@H]1C5", "note": "[Compound 9, N-(17-allyl-4,5α-epoxy-3,14-dihydroxymorphinan-6α-yl)-phthalimide.tartaric acid salt]", "ED50": 0.14}
{"smiles": "O=C1c2ccccc2C(=O)N1[C@@H]1CC[C@@]2(O)[C@H]3Cc4ccc(O)c5c4[C@@]2(CCN3CC2CC2)[C@H]1O5", "note": "[Compound 10, N-(17-cyclopropylmethyl-4,5α-epoxy-3,14-dihydroxymorphinan-6β-yl)-phthalimide.hydrochloric acid salt]", "ED50": 0.031}
{"smiles": "Cc1ccc2c(c1)C(=O)N([C@@H]1CC[C@@]3(O)[C@H]4Cc5ccc(O)c6c5[C@@]3(CCN4CC3CC3)[C@H]1O6)C2=O", "note": "[Compound 11, N-(17-cyclopropylmethyl-4,5α-epoxy-3,14-dihydroxy-morphinan-6β-yl)-4-methylphthalimide.hydrochloric acid salt]", "ED50": 0.045}
{"smiles": "O=C1c2ccc(Cl)cc2C(=O)N1[C@@H]1CC[C@@]2(O)[C@H]3Cc4ccc(O)c5c4[C@@]2(CCN3CC2CC2)[C@H]1O5", "note": "[Compound 12, N-(17-cyclopropylmethyl-4,5α-epoxy-3,14-dihydroxy-morphinan-6β-yl)-4-chlorophthalimide.tartaric acid salt]", "ED50": 0.29}
{"smiles": "O=C1c2ccc(F)cc2C(=O)N1[C@@H]1CC[C@@]2(O)[C@H]3Cc4ccc(O)c5c4[C@@]2(CCN3CC2CC2)[C@H]1O5", "note": "[Compound 13, N-(17-cyclopropylmethyl-4,5α-epoxy-3,14-dihydroxy-morphinan-6β-yl)-4-fluorophthalimide.tartaric acid salt]", "ED50": 0.037}
{"smiles": "O=C1c2cccc(F)c2C(=O)N1[C@@H]1CC[C@@]2(O)[C@H]3Cc4ccc(O)c5c4[C@@]2(CCN3CC2CC2)[C@H]1O5", "note": "[Compound 14, N-(17-cyclopropylmethyl-4,5α-epoxy-3,14-dihydroxy-morphinan-6β-yl)-3-fluorophthalimide.tartaric acid salt]", "ED50": 0.034}
{"smiles": "Cc1cccc2c1C(=O)N([C@@H]1CC[C@@]3(O)[C@H]4Cc5ccc(O)c6c5[C@@]3(CCN4CC3CC3)[C@H]1O6)C2=O", "note": "[Compound 15, N-(17-cyclopropylmethyl-4,5α-epoxy-3,14-dihydroxy-morphinan-6β-yl)-3-methylphthalimide.tartaric acid salt]", "ED50": 0.03}
{"smiles": "O=C1c2cc3ccccc3cc2C(=O)N1[C@@H]1CC[C@@]2(O)[C@H]3Cc4ccc(O)c5c4[C@@]2(CCN3CC2CC2)[C@H]1O5", "note": "[Compound 16, N-(17-cyclopropylmethyl-4,5α-epoxy-3,14-dihydroxy-morphinan-6β-yl)naphthalenedicarboxylic imide.hydrochloric acid salt]", "ED50": 0.31}
{"smiles": "O=C1c2cc(Cl)c(Cl)cc2C(=O)N1[C@@H]1CC[C@@]2(O)[C@H]3Cc4ccc(O)c5c4[C@@]2(CCN3CC2CC2)[C@H]1O5", "note": "[Compound 17, N-[17-(cyclopropylmethyl)-4,5α-epoxy-3,14-dihydroxymorphinan-6β-yl]]-4,5-dichlorophthalimide.tartaric acid salt]", "ED50": 0.27}
{"smiles": "O=C1CCC(=O)N1[C@@H]1CC[C@@]2(O)[C@H]3Cc4ccc(O)c5c4[C@@]2(CCN3CC2CC2)[C@H]1O5", "note": "[Compound 21, N-(17-cyclopropylmethyl-4,5α-epoxy-3,14-dihydroxy-morphinan-6β-yl)-succinic imide.tartaric acid salt]", "ED50": 3.37}
{"smiles": "O=C1C=CC(=O)N1[C@@H]1CC[C@@]2(O)[C@H]3Cc4ccc(O)c5c4[C@@]2(CCN3CC2CC2)[C@H]1O5", "note": "[Compound 22, N-(17-cyclopropylmethyl-4,5α-epoxy-3,14-dihydroxy-morphinan-6β-yl)-maleic imide.tartaric acid salt]", "ED50": 2.18}
{"tested_on": "male ddY mouse", "assay": "Analgesic activity test by mouse acetic acid writhing method", "format": "in vivo", "details": "subcutaneous, 15 minutes before i.p. 0.6% acetic acid; dosage to halve the number of writhing response", "procedure": "as §1", "units": {"ED50": "mg/kg"}}
{"smiles": "O=C(O)C(O)C(O)C(=O)O.O=C1c2ccccc2C(=O)N1[C@@H]1CC[C@@]2(O)[C@H]3Cc4ccc(O)c5c4[C@@]2(CCN3CC2CC2)[C@H]1O5", "note": "[Compound 18, N-(17-cyclopropylmethyl-4,5α-epoxy-3,14-dihydroxy-morphinan-6β-yl)-phthalimide.tartaric acid salt]", "ED50": 0.019}
{"smiles": "O=C(O)C(O)C(O)C(=O)O.O=C1C2=C(CCCC2)C(=O)N1[C@@H]1CC[C@@]2(O)[C@H]3Cc4ccc(O)c5c4[C@@]2(CCN3CC2CC2)[C@H]1O5", "note": "[Compound 19, N-(17-cyclopropylmethyl-4,5α-epoxy-3,14-dihydroxy-morphinan-6β-yl)-3,4,5,6-tetrahydrophthalimide.tartaric acid salt]", "ED50": 0.032}
{"smiles": "O=C(O)C(O)C(O)C(=O)O.Oc1ccc2c3c1O[C@H]1[C@H](N4CCCC4)CC[C@@]4(O)[C@@H](C2)N(CC2CC2)CC[C@]314", "note": "[Compound 20, 17-cyclopropylmethyl-4,5α-epoxy-6β-(pyrrolidine-1-yl)-morphinan-3,14-diol.tartaric acid salt, reference compound]", "ED50": ">10"}
